Source: patent US20100298141A1, “SUBSTITUTED PYRIDINE N-OXIDE HERBICIDES” (E. I. DU PONT DE NEMOURS AND COMPANY, priority 2007, published 2010)

Key:
blackgrass = test: Test C pre-/postemergence test; type: in vivo, Alopecurus myosuroides
Method in brief: (§1)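 Test chemicals were formulated with surfactant in a non-phytotoxic solvent and sprayed both on freshly planted seeds (preemergence) and on 1- to 4-leaf plants of 2–18 cm (postemergence). Flooded-paddy pots received compound directly into 3 cm of standing water, maintained for the test.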

Italian ryegrass = test: Test C pre-/postemergence test; type: in vivo, Lolium multiflorum
Method in brief: as §1

duck salad = test: Test C flooded paddy test; type: in vivo, Heteranthera limosa; conditions: Flood
Method in brief: (§2)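 Compound was added to standing water 3 cm above soil, flood maintained, and plants held in a greenhouse before visual scoring against controls at 13 to 15 days.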

green foxtail = test: Test C pre-/postemergence test; type: in vivo, Setaria viridis
Method in brief: as §1

wheat = test: Test C pre-/postemergence test; type: in vivo, Triticum aestivum
Method in brief: as §1

woolly cupgrass = test: Test C pre-/postemergence test; type: in vivo, Eriochloa villosa
Method in brief: as §1

crabgrass = test: Test A pre-/postemergence greenhouse test; type: in vivo, Digitaria sanguinalis; conditions: for Crabgrass, Large plant response rating: 0 to 100 scale
Method in brief: (§3)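 Visual injury ratings, made relative to untreated controls roughly ten days after treatment, cover both preemergence and postemergence application. Compounds in a surfactant-containing non-phytotoxic solvent were sprayed onto the soil surface after sowing and, simultaneously, onto young plants at the one- to two-leaf stage.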

common ragweed = test: Test C pre-/postemergence test; type: in vivo, Ambrosia elation
Method in brief: as §1

yellow nutsedge = test: Test C pre-/postemergence test; type: in vivo, Cyperus esculentus
Method in brief: as §1

Goosegrass = test: Test C pre-/postemergence test; type: in vivo, Eleusin indica
Method in brief: as §1

umbrella sedge = test: Test C flooded paddy test; type: in vivo, Cyperus difformis; conditions: Flood
Method in brief: as §2

morningglory = test: Test A pre-/postemergence greenhouse test; type: in vivo, Ipomoea spp.; conditions: for Morningglory plant response rating: 0 to 100 scale
Method in brief: as §3

[1] = system: common (oilseed) sunflower; test: Test C pre-/postemergence test; type: in vivo, Helianthus annuus
Method in brief: as §1

redroot pigweed = test: Test A pre-/postemergence greenhouse test; type: in vivo, Amaranthus retroflexus; conditions: for Pigweed plant response rating: 0 to 100 scale
Method in brief: as §3

eastern black nightshade = test: Test C pre-/postemergence test; type: in vivo, Solanum ptycanthum
Method in brief: as §1

wild oat = test: Test C pre-/postemergence test; type: in vivo, Avena fatua
Method in brief: as §1

corn = test: Test C pre-/postemergence test; type: in vivo, Zea mays
Method in brief: as §1

[2] = 62 g ai/ha, Preemergence, scale 0 to 100
[3] = 125 g ai/ha, preemergence, scale 0 (no effect) to 100 (complete control)
[4] = Preemergence, 31 g ai/ha, scale 0 to 100 (0 no effect, 100 complete control)
[5] = preemergence, 250 g ai/ha, scale 0 (no effect) to 100 (complete control)
[6] = 31 g ai/ha, scale 0 to 100 (0 no effect, 100 complete control)
[7] = 62 g ai/ha, scale 0 to 100, 0 no effect, 100 complete control, 13 to 15 days
[8] = 125 g ai/ha, scale 0 to 100, 0 no effect, 100 complete control, 13 to 15 days
[9] = 250 g ai/ha, scale 0 to 100, 0 no effect, 100 complete control, 13 to 15 days
[10] = Postemergence, 125 g ai/ha, 0 is no effect, 100 is complete control
[11] = Postemergence, 500 g ai/ha, 0 is no effect, 100 is complete control
[12] = Preemergence, 125 g ai/ha, 0 no effect, 100 complete control
[13] = Preemergence, 500 g ai/ha, 0 to 100 scale where 0 is no effect and 100 is complete control

Cn1nc(C(F)(F)F)c(C(Cl)S(=O)(=O)c2cccc[n+]2[O-])c1OCC(F)(F)F (racemic) [Compound 36]
15: Wheat plant response rating (wheat; [5])
50: Crabgrass, Large plant response rating (crabgrass; [10]) | Ragweed plant response rating (common ragweed; [5]) | Nutsedge, Yellow plant response rating (yellow nutsedge; [2])
98: Ryegrass, Italian plant response rating (Italian ryegrass; [2])
75: Foxtail, Green plant response rating (green foxtail; [3])
60: Plant response rating, Blackgrass (blackgrass; [4]) | Pigweed plant response rating (redroot pigweed; [11]) | Corn plant response rating (corn; [3])
90: Plant response rating, Ducksalad (duck salad; [8]) | Plant response rating, Ducksalad (duck salad; [9]) | Plant response rating, Crabgrass, Large (crabgrass; [13])
85: Plant response rating, Ducksalad (duck salad; [6]) | Plant response rating, Ducksalad (duck salad; [7]) | Plant response rating, Goosegrass (Goosegrass; [4]) | Plant response rating, Sedge, Umbrella (umbrella sedge; [7])
95: Blackgrass plant response rating (blackgrass; [2]) | Blackgrass plant response rating (blackgrass; [3]) | Plant response rating, Sedge, Umbrella (umbrella sedge; [8])
100: Blackgrass plant response rating (blackgrass; [5]) | Ryegrass, Italian plant response rating (Italian ryegrass; [3]) | Ryegrass, Italian plant response rating (Italian ryegrass; [5]) | Foxtail, Green plant response rating (green foxtail; [5]) | Cupgrass, Woolly plant response rating (woolly cupgrass; [3]) | Cupgrass, Woolly plant response rating (woolly cupgrass; [5]) | Nutsedge, Yellow plant response rating (yellow nutsedge; [3]) | Nutsedge, Yellow plant response rating (yellow nutsedge; [5]) | Goosegrass plant response rating (Goosegrass; [2]) | Goosegrass plant response rating (Goosegrass; [3]) | Goosegrass plant response rating (Goosegrass; [5]) | Plant response rating, Sedge, Umbrella (umbrella sedge; [9]) | Pigweed plant response rating (redroot pigweed; [12]) | Plant response rating, Pigweed (redroot pigweed; [13])
10: Ragweed plant response rating (common ragweed; [3]) | Pigweed plant response rating (redroot pigweed; [10])
0: Wheat plant response rating (wheat; [2]) | Wheat plant response rating (wheat; [3]) | Plant response rating, Wheat (wheat; [4]) | Ragweed plant response rating (common ragweed; [2]) | Plant response rating, Ragweed (common ragweed; [4]) | Plant response rating, Nutsedge, Yellow (yellow nutsedge; [4]) | Morningglory plant response rating (morningglory; [10]) | Morningglory plant response rating (morningglory; [12]) | Sunflower plant response rating [1, 2] | Sunflower plant response rating [1, 3] | Plant response rating, Sunflower [1, 4] | Sunflower plant response rating [1, 5] | Plant response rating, Corn (corn; [4])
80: Crabgrass, Large plant response rating (crabgrass; [11]) | Plant response rating, Sedge, Umbrella (umbrella sedge; [6]) | Plant response rating, Morningglory (morningglory; [13]) | Nightshade plant response rating (eastern black nightshade; [3]) | Nightshade plant response rating (eastern black nightshade; [5]) | Oat, Wild plant response rating (wild oat; [5]) | Corn plant response rating (corn; [5])
30: Plant response rating, Ryegrass, Italian (Italian ryegrass; [4]) | Morningglory plant response rating (morningglory; [11]) | Oat, Wild plant response rating (wild oat; [2])
55: Cupgrass, Woolly plant response rating (woolly cupgrass; [2]) | Plant response rating, Cupgrass, Woolly (woolly cupgrass; [4])
25: Plant response rating, Oat, Wild (wild oat; [4])
40: Oat, Wild plant response rating (wild oat; [3]) | Corn plant response rating (corn; [2])
70: Foxtail, Green plant response rating (green foxtail; [2]) | Crabgrass, Large plant response rating (crabgrass; [12]) | Nightshade plant response rating (eastern black nightshade; [2]) | Plant response rating, Nightshade (eastern black nightshade; [4])
